Measurements taken from article PMC12283027, “Development of Potent and Selective RIPK1 Degraders Targeting Its Nonenzymatic Function for Cancer Treatment” (Journal of Medicinal Chemistry, 2025).

The molecules below were run against T1, Receptor-interacting protein kinase 1 (RIPK1) (Homo sapiens, UniProt Q13546) (assay: cell-based). Conditions: HEK293T-RIPK1-HiBiT cells; read-out: Dmax (HEK293T-RIPK1-HiBiT cell line).
T1 construct: with VHL
Set-up: HiBiT luminescence of CRISPR-tagged endogenous RIPK1 (C-terminal HiBiT) after PROTAC treatment; degradation DC50 and Dmax
Method: Screening of RIPK1 Degraders Using HEK-293T-RIPK1-HiBiT cells  3 Primary screening RIPK1 degraders using HEK293T-RIPK1-HiBiT cell line. Cells were seeded in 96-well plates and treated with test compounds for 20 h. After treatment, Bioluminescence signal reflecting RIPK1 protein level was generated by adding Nano-Glo HiBiT detect reagent. A) Bioluminescence signal was visualized using Bio-Rad ChemiDoc MP Imaging system. The grayscale intensity is positively correlated with protein abundance. B) Relative luminescence Units (RLUs) in each well was measured using CLARIOstar plate reader. DC50 values were calculated by nonlinear regression analysis in GraphPad Prism software. DC50 = dose that reduces RIPK1 protein by 50%. D max = maximum reduction of RIPK1 protein achieved by the compound. Guide RNA oligos for RIPK1 (foward: CACCGA-GCCCAT-CCAGGG-TTAGTTC. reverse: AAACGA-ACTAAC-CCTGGA-TGGGCTC) were cloned into Cas9 expression plasmid (pSpCas9–2A-GFP purchased from Addgene), and cotransfected with donor DNA oligo using FuGENE HD Transfection Reagent (Promega). GFP positive cells were FACS sorted and single clones were screened for HiBiT signal by Nano Glo HiBiT Lytic Detection System (Promega).

T1 sequence (Q13546 whole entry): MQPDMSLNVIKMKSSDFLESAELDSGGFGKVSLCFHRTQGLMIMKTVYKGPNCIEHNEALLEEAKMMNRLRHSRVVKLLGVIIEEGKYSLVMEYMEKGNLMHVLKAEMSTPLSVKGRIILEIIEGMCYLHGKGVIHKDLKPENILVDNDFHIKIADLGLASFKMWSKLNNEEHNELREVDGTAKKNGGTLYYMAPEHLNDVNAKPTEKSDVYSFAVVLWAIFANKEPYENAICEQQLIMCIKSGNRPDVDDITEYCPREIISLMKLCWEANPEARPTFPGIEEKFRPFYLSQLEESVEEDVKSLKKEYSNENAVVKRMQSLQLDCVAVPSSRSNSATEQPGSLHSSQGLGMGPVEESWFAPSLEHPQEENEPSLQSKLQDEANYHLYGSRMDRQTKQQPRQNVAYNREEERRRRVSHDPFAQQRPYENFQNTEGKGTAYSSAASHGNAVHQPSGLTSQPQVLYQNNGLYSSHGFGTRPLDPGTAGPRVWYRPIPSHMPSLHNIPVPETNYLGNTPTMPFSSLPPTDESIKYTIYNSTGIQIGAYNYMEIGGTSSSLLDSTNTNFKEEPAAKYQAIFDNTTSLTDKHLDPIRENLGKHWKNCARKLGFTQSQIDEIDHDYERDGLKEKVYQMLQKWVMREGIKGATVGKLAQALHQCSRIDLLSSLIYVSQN
T1 sequence (P40337 whole entry partner): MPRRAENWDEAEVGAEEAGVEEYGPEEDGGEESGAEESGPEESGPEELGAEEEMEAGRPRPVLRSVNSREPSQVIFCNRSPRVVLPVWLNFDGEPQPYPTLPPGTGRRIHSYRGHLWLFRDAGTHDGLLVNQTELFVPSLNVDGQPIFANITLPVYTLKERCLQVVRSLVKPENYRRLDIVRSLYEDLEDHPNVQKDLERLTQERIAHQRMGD

| SMILES | Dmax [%] |
| --- | --- |
| Cc1ncsc1-c1ccc([C@H](C)NC(=O)[C@@H]2C[C@@H](O)CN2C(=O)[C@@H](NC(=O)C2CCN(CCNC(=O)Cn3cc(-c4cnc(N)c5c(-c6ccc7c(c6)CCN7C(=O)Cc6ccccc6)csc45)cn3)CC2)C(C)(C)C)cc1 [225-6] | 34 |
| Cc1ncsc1-c1ccc([C@H](C)NC(=O)[C@@H]2C[C@@H](O)CN2C(=O)[C@@H](NC(=O)C2CCN(CCCNC(=O)Cn3cc(-c4cnc(N)c5c(-c6ccc7c(c6)CCN7C(=O)Cc6ccccc6)csc45)cn3)CC2)C(C)(C)C)cc1 [225-7] | 22 |
| Cc1ncsc1-c1ccc([C@H](C)NC(=O)[C@@H]2C[C@@H](O)CN2C(=O)[C@@H](NC(=O)CCCCCN2CCN(C(=O)Cn3cc(-c4cnc(N)c5c(-c6ccc7c(c6)CCN7C(=O)Cc6ccccc6)csc45)cn3)CC2)C(C)(C)C)cc1 [229-1] | 58 |
| Cc1ncsc1-c1ccc([C@H](C)NC(=O)[C@@H]2C[C@@H](O)CN2C(=O)[C@@H](NC(=O)CCCCNC2CCN(C(=O)Cn3cc(-c4cnc(N)c5c(-c6ccc7c(c6)CCN7C(=O)Cc6ccccc6)csc45)cn3)CC2)C(C)(C)C)cc1 [229-2] | 9 |
| Cc1ncsc1-c1ccc([C@H](C)NC(=O)[C@@H]2C[C@@H](O)CN2C(=O)[C@@H](NC(=O)CCN2CCN(C(=O)CNC(=O)Cn3cc(-c4cnc(N)c5c(-c6ccc7c(c6)CCN7C(=O)Cc6ccccc6)csc45)cn3)CC2)C(C)(C)C)cc1 [229-3] | 5 |
| Cc1ncsc1-c1ccc([C@H](C)NC(=O)[C@@H]2C[C@@H](O)CN2C(=O)[C@@H](NC(=O)CCN2CCN(CCNC(=O)Cn3cc(-c4cnc(N)c5c(-c6ccc7c(c6)CCN7C(=O)Cc6ccccc6)csc45)cn3)CC2)C(C)(C)C)cc1 [229-4] | 25 |
